Assay [1] addresses T1, Human PARP-1 enzyme (Homo sapiens, UniProt P09874).
T1 construct: purchased Trevigen
The assay is described as follows: In vitro Scintillation Proximity Assay (SPA) for PARP-1 inhibitory activity. It is filed as biochemical. As to conditions: read-out: in vitro SPA assay PARP-1 pIC50 (converted). In short, it runs like this:
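SPA assay: nicked-DNA-activated PARP-1 (0.1–0.2 μg/ml) ADP-ribosylates biotinylated histones (2 μg/ml) using [3H]-NAD+, 20 min at RT in Tris pH 8/DTT/MgCl2, stopped with 2 mM NAD+. Blank-subtracted cpm expressed as % control; IC50 by linear interpolation, reported as pIC50 (10−5 to 3×10−9 M tested).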

The test system of assay [2] is HCT116 cells. The assay is described as follows: Antiproliferative activity, Alamar Blue assay, HCT116 cells. It is filed as cell-based, human. Also noted: key to HCT116 antiproliferative activity pIC50: pIC50 = -log IC50 (IC50: conc. reducing growth to 50% of control). The following applies: for IC50: Homo sapiens, HCT-116, HCT116 cells, read-out: HCT116 antiproliferative activity pIC50 (converted). The gist of the method: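 Readout is resazurin fluorescence (ex 540, em 590 nm) after a 4 h dye incubation at 37 °C, following 4-day compound treatment of HCT116 cells plated 24 h earlier. Results expressed as % viable cells versus untreated; pIC50 derived from probit-fitted IC50.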
On the technique in general: Resazurin is reduced to fluorescent resorufin, in cell work by metabolically active cells.

Assay [3] has as its system PC-3 cells. The assay is described as follows: Antiproliferative activity, Alamar Blue assay, PC-3 cells. It is filed as cell-based, human. The following applies: for IC50: Homo sapiens, PC-3, PC3 cells, read-out: PC3 antiproliferative activity pIC50 (converted). The gist of the method: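 Resazurin-based fluorescence (540 nm ex/590 nm em) measured after 4-day compound treatment plus 24 hrs dye incubation at 37° C. Cells plated at 4.5×10^3 cells/ml, adhered 24 hr first. pIC50 from probit-derived IC50 on % viable cells versus untreated, triplicate wells.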

Read-outs that look alike come from different tables or passages of the source.

T1 sequence (P09874 whole entry): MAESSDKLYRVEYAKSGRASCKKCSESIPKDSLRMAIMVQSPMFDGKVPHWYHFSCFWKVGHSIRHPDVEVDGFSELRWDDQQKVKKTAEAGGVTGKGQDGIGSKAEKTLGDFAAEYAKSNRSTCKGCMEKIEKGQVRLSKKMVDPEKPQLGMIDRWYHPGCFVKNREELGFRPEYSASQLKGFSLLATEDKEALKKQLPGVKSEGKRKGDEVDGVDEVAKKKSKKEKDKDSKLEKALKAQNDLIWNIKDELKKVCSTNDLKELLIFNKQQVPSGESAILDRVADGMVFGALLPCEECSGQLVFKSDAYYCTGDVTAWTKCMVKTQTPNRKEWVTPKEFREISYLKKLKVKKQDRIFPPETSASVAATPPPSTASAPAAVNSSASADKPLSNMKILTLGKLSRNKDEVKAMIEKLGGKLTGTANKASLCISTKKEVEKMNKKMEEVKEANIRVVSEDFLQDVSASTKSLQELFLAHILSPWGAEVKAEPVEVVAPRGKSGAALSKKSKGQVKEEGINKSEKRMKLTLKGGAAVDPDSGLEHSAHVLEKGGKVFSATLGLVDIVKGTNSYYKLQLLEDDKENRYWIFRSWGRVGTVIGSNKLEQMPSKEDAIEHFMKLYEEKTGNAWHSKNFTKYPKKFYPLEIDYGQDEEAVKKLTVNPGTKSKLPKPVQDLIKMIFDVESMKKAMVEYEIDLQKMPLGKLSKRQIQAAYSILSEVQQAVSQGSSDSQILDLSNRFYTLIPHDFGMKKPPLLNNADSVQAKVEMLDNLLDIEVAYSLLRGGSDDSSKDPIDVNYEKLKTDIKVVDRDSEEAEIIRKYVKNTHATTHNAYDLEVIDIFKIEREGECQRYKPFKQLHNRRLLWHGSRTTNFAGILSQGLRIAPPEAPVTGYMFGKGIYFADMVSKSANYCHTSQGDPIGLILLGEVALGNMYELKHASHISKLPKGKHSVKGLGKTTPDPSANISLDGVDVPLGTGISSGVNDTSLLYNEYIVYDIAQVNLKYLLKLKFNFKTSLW

With `CCc1cc2ccc([C@](C)(C#N)Cc3ccccc3)cc2[nH]c1=O` (single isomer, unassigned) [Compound 45], the figures for the IC50 in assay [1], in assay [2] and in assay [3] were 316 nM, more than 10000 nM and more than 10000 nM, respectively.

As to `CCc1cc2ccc([C@@](C)(C#N)Cc3ccccc3)cc2[nH]c1=O` (single isomer, unassigned) [Compound 46], the IC50 in assay [1] was 316 nM; in assay [2], 158 nM; in assay [3], 398 nM.

For `CCc1cc2ccc(C(C)(C#N)CC3COc4ccccc4O3)cc2[nH]c1=O` (single isomer, unassigned) [Compound 47], in assay [1], the IC50 is 398 nM. In addition, in assay [2] (HCT116 cells), the “HCT116 antiproliferative activity pIC50” value is listed as less than 5. In addition, the “PC3 antiproliferative activity pIC50” value in assay [3] (PC3 cells) is listed as less than 5.

Consider `CCc1cc2ccc([C@](C)(C#N)Cc3nc(OC)cc(OC)n3)cc2[nH]c1=O` (single isomer, unassigned) [Compound 52], for which the IC50 in assay [1] is 200 nM; in assay [2] (Alamar Blue), 5010 nM; in assay [3] (Alamar Blue), 7940 nM.

Regarding `CCc1cc2ccc([C@@](C)(C#N)Cc3nc(OC)cc(OC)n3)cc2[nH]c1=O` (single isomer, unassigned) [Compound 53], the IC50 is 50.1 nM in assay [1], 39.8 nM in assay [2] (Alamar Blue) and 39.8 nM in assay [3] (Alamar Blue).

As to `CCc1cc2ccc(C(C)(C#N)Cc3cccc(C#C[Si](C)(C)C)c3)cc2[nH]c1=O` (stereo not shown) [Compound 1], the IC50 in assay [1] was 398 nM; in assay [2] (Alamar Blue), 200 nM; in assay [3] (Alamar Blue), 631 nM.

As to `CCc1cc2ccc(C(C)(C#N)Cc3cccc(CN(C)C)c3)cc2[nH]c1=O` (stereo not shown) [Compound 7], the IC50 in assay [1] was 1000 nM; in assay [2] it was 2510 nM; in assay [3] it was 7940 nM.

Consider `CCc1cc2ccc(C(C)(C#N)Cc3cccc(COC)c3)cc2[nH]c1=O` (stereo not shown) [Compound 8], for which the IC50 was 501 nM in assay [1], 631 nM in assay [2] and 631 nM in assay [3].

Consider `CCc1cc2ccc(C(C)(C#N)Cc3cccc(CO)c3)cc2[nH]c1=O` (stereo not shown) [Compound 9], for which the IC50 in assay [1] was 200 nM; in assay [2], 251 nM; in assay [3], 631 nM.

On to `CCc1cc2ccc(C(C#N)(Cc3ccccc3)CC3CC3)cc2[nH]c1=O` (stereo not shown) [Compound 28], for which the IC50 in assay [2] and in assay [3] was more than 10000 nM throughout.

With `CC(C#N)(Cc1ccccc1)c1ccc2cc(CO)c(=O)[nH]c2c1` (stereo not shown) [Compound 40], the IC50 is 2510 nM in assay [1], 7940 nM in assay [2] and more than 10000 nM in assay [3].

Take `CCc1cc2ccc(C(C)(C#N)Cc3c(F)ccc(C)c3F)cc2[nH]c1=O` (stereo not shown) [Compound 41]: the IC50 is 1000 nM in assay [1], 631 nM in assay [2] and 631 nM in assay [3].

As to `CCc1cc2ccc(C(C)(C#N)Cc3nnsc3Cl)cc2[nH]c1=O` (stereo not shown) [Compound 42], the IC50 in assay [1] was 200 nM; in assay [2] it was 158 nM; in assay [3], 316 nM.

With `CCc1cc2ccc(C(C)(C#N)Cc3nc(OC)cc(OC)n3)cc2[nH]c1=O` (stereo not shown) [Compound 43], the IC50 was 200 nM in assay [1], 158 nM in assay [2] and 158 nM in assay [3].

Regarding `CCc1cc2ccc(C(C)(C#N)Cc3ccccc3)cc2[nH]c1=O` (stereo not shown) [Compound 44], the IC50 in assay [1] is 316 nM.

Turning to `CCc1cc2ccc(C(C)(C#N)Cc3cccc(Br)c3)cc2[nH]c1=O` (stereo not shown) [Compound 49], the IC50 in assay [1] is 316 nM; in assay [2], 200 nM; in assay [3], 158 nM.

Regarding `CCOP(=O)(OCC)c1cccc(CC(C)(C#N)c2ccc3cc(CC)c(=O)[nH]c3c2)c1` (stereo not shown) [Compound 50], the values for the IC50 in assay [1], in assay [2] and in assay [3] were 2510 nM, 1260 nM and 794 nM, respectively.

Turning to `CCc1cc2ccc(C(C)(C#N)Cc3cccc(C#N)c3)cc2[nH]c1=O` (stereo not shown) [Compound 51], the IC50 in assay [1] is 126 nM; in assay [2], 126 nM; in assay [3] it was 200 nM.

With `CCc1cc2ccc(C(C)(C#N)Cc3cccc(N4CCCCC4)c3)cc2[nH]c1=O` (stereo not shown) [Compound 65], the IC50 in assay [1] is 1260 nM.

Source of the values: patent US8778966B2, “Quinolinone derivatives as PARP and tank inhibitors” (Janssen Pharmaceutica, NV, priority 2007, dated 2014).
